Data reported in patent US6737383B1, “Herbicidal oxadiazolidines” (priority 1999, dated 2004).

What was measured:
blackgrass = experiment: Test B pre/postemergence blackgrass; type: in vivo, Alopecurus myosuroides
Outline: (§1)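 Herbicidal effect was estimated by eye on a ten-point control scale after plants spent twelve to sixteen days in a greenhouse following soil or foliar treatment. Foliar sprays targeted plants at one to four leaves; all doses were formulated in a non-phytotoxic solvent with surfactant.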

surinam grass = experiment: Test B pre/postemergence surinam grass; type: in vivo, Brachiaria decumbens
Outline: as §1

cocklebur = experiment: Test B pre/postemergence cocklebur; type: in vivo, Xanthium strumarium
Outline: as §1

corn = experiment: Test B pre/postemergence corn; type: in vivo, Zea mays
Outline: as §1

crabgrass = experiment: Test B pre/postemergence crabgrass; type: in vivo, Digitaria sanguinalis
Outline: as §1

soybean = experiment: Test B pre/postemergence soybean; type: in vivo, Glycine max
Outline: as §1

sugar beet = experiment: Test B pre/postemergence sugar beet; type: in vivo, Beta vulgaris
Outline: as §1

velvetleaf = experiment: Test B pre/postemergence velvetleaf; type: in vivo, Abutilon theophrasti
Outline: as §1

wheat = experiment: Test B pre/postemergence wheat; type: in vivo, Triticum aestivum
Outline: as §1

wild oat = experiment: Test B pre/postemergence wild oat; type: in vivo, Avena fatua
Outline: as §1

purple nutsedge = experiment: Test B pre/postemergence purple nutsedge; type: in vivo, Cyperus rotundus
Outline: as §1

rice = experiment: Test B flood test rice; type: in vivo, Oryza sativa; details: for Rice plant response rating (0 to 10 scale, 0 is no effect, 10 is complete control): Rate 125 g/ha, under heading Pre-emergence, visual evaluation after twelve to sixteen days
Outline: (§2)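 Flood test on plants grown to the 2-leaf stage; treated plants kept in greenhouse twelve to sixteen days, then visually rated against controls on a 0 (no effect) to 10 (complete control) scale.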

smallflower flatsedge = experiment: Test B flood test smallflower flatsedge; type: in vivo, Cyperus difformis; details: for S. Flatsedge plant response rating (0 to 10 scale, 0 is no effect, 10 is complete control): Rate 125 g/ha, under heading Pre-emergence, visual evaluation after twelve to sixteen days
Outline: as §2

duck salad = experiment: Test B flood test duck salad; type: in vivo, Heteranthera limosa; details: for Ducksalad plant response rating (0 to 10 scale, 0 is no effect, 10 is complete control): Rate 125 g/ha, under heading Pre-emergence, visual evaluation after twelve to sixteen days
Outline: as §2

bamyardgrass = experiment: Test B flood test barnyardgrass; type: in vivo, Echinochloa crus-galli; details: for Barnyardgrass plant response rating (0 to 10 scale, 0 is no effect, 10 is complete control): Rate 125 g/ha, under heading Pre-emergence, visual evaluation after twelve to sixteen days
Outline: as §2

[1] = Postemergence, Rate 125 g/ha, scale of 0 to 10 where 0 is no effect and 10 is complete control
[2] = Postemergence, Rate 250 g/ha, scale of 0 to 10, 0 is no effect, 10 is complete control
[3] = Postemergence, Rate 1000 g/ha, scale 0 to 10 (0 no effect, 10 complete control)
[4] = Preemergence, Rate 125 g/ha, scale of 0 to 10 where 0 is no effect and 10 is complete control
[5] = Preemergence, Rate 250 g/ha, scale 0 to 10 (0 no effect, 10 complete control)
[6] = Preemergence, Rate 500 g/ha, scale of 0 to 10 where 0 is no effect and 10 is complete control
[7] = Rate 500 g/ha, Postemergence, scale 0 to 10, 0 is no effect, 10 is complete control
[8] = Rate 1000 g/ha, Preemergence, scale 0 to 10 (0 no effect, 10 complete control)
[9] = Pre-emergence, Rate 1000 g/ha, scale 0 to 10 (0 no effect, 10 complete control)
[10] = Rate 250 g/ha, Pre-emergence (flood test species), scale 0 to 10, 0 is no effect, 10 is complete control
[11] = Rate 500 g/ha, Pre-emergence section of Table B, 0 to 10 scale (0 no effect, 10 complete control)
[12] = Postemergence, Rate 250 g/ha, scale 0 to 10
[13] = Postemergence, Rate 500 g/ha, scale of 0 to 10 where 0 is no effect and 10 is complete control
[14] = Preemergence, Rate 250 g/ha, scale 0 to 10, 0 is no effect, 10 is complete control
[15] = Preemergence, Rate 500 g/ha, scale 0 to 10, 0 is no effect, 10 is complete control
[16] = Rate 125 g/ha, Postemergence, scale 0 to 10, 0 is no effect, 10 is complete control
[17] = Rate 500 g/ha, Pre-emergence, flood test species, scale 0 to 10 (0 no effect, 10 complete control)

COP(=O)(CCn1c(=O)on(C(=O)N(c2ccc(F)cc2)C(C)C)c1=O)OC [Compound 662]
Blackgrass plant response rating (blackgrass; [1]): 0
Blackgrass plant response rating (blackgrass; [2]): 0
Blackgrass plant response rating (blackgrass; [3]): 6
Blackgrass plant response rating (blackgrass; [4]): 3
Plant response rating, Blackgrass (blackgrass; [5]): 4
Plant response rating, Blackgrass (blackgrass; [6]): 9
Blackgrass plant response rating (blackgrass; [7]): 3
Plant response rating, Blackgrass (blackgrass; [8]): 9
Plant response rating, B. signalgrass (surinam grass; [1]): 0
B. signalgrass plant response rating (surinam grass; [2]): 0
B. signalgrass plant response rating (surinam grass; [3]): 2
B. signalgrass plant response rating (surinam grass; [4]): 0
Plant response rating, B. signalgrass (surinam grass; [5]): 3
Plant response rating, B. signalgrass (surinam grass; [6]): 7
B. signalgrass plant response rating (surinam grass; [7]): 2
Plant response rating, B. signalgrass (surinam grass; [8]): 9
Cocklebur plant response rating (cocklebur; [1]): 0
Cocklebur plant response rating (cocklebur; [2]): 0
Cocklebur plant response rating (cocklebur; [3]): 5
Cocklebur plant response rating (cocklebur; [4]): 0
Plant response rating, Cocklebur (cocklebur; [5]): 0
Plant response rating, Cocklebur (cocklebur; [6]): 2
Cocklebur plant response rating (cocklebur; [7]): 0
Plant response rating, Cocklebur (cocklebur; [8]): 9
Corn plant response rating (corn; [1]): 0
Corn plant response rating (corn; [2]): 0
Corn plant response rating (corn; [3]): 1
Corn plant response rating (corn; [4]): 0
Plant response rating, Corn (corn; [5]): 0
Plant response rating, Corn (corn; [6]): 3
Corn plant response rating (corn; [7]): 0
Plant response rating, Corn (corn; [8]): 5
Crabgrass plant response rating (crabgrass; [1]): 0
Crabgrass plant response rating (crabgrass; [2]): 0
Crabgrass plant response rating (crabgrass; [3]): 8
Crabgrass plant response rating (crabgrass; [4]): 0
Plant response rating, Crabgrass (crabgrass; [5]): 4
Plant response rating, Crabgrass (crabgrass; [6]): 6
Crabgrass plant response rating (crabgrass; [7]): 2
Plant response rating, Crabgrass (crabgrass; [8]): 9
Soybean plant response rating (soybean; [1]): 1
Soybean plant response rating (soybean; [4]): 0
Plant response rating, Soybean (soybean; [5]): 0
Plant response rating, Soybean (soybean; [6]): 0
Soybean plant response rating (soybean; [7]): 2
Plant response rating, Soybean (soybean; [8]): 3
Sugarbeets plant response rating (sugar beet; [1]): 0
Sugarbeets plant response rating (sugar beet; [3]): 0
Sugarbeets plant response rating (sugar beet; [4]): 0
Plant response rating, Sugarbeets (sugar beet; [5]): 0
Plant response rating, Sugarbeets (sugar beet; [6]): 0
Sugarbeets plant response rating (sugar beet; [7]): 0
Plant response rating, Sugarbeets (sugar beet; [8]): 0
Velvetleaf plant response rating (velvetleaf; [1]): 0
Velvetleaf plant response rating (velvetleaf; [3]): 0
Velvetleaf plant response rating (velvetleaf; [4]): 0
Plant response rating, Velvetleaf (velvetleaf; [5]): 0
Plant response rating, Velvetleaf (velvetleaf; [6]): 2
Velvetleaf plant response rating (velvetleaf; [7]): 0
Plant response rating, Velvetleaf (velvetleaf; [8]): 2
Wheat plant response rating (wheat; [1]): 0
Wheat plant response rating (wheat; [3]): 0
Wheat plant response rating (wheat; [4]): 0
Plant response rating, Wheat (wheat; [5]): 0
Plant response rating, Wheat (wheat; [6]): 0
Wheat plant response rating (wheat; [7]): 0
Plant response rating, Wheat (wheat; [8]): 5
Wild oats plant response rating (wild oat; [1]): 1
Wild oats plant response rating (wild oat; [3]): 1
Wild oats plant response rating (wild oat; [4]): 0
Plant response rating, Wild oats (wild oat; [5]): 0
Plant response rating, Wild oats (wild oat; [6]): 9
Wild oats plant response rating (wild oat; [7]): 1
Plant response rating, Wild oats (wild oat; [8]): 9
Nutsedge plant response rating (purple nutsedge; [1]): 0
Nutsedge plant response rating (purple nutsedge; [4]): 0
Plant response rating, Nutsedge (purple nutsedge; [5]): 4
Plant response rating, Nutsedge (purple nutsedge; [6]): 7
Nutsedge plant response rating (purple nutsedge; [7]): 5
Plant response rating, Nutsedge (purple nutsedge; [8]): 10
Rice plant response rating (rice; [9]): 0
Rice plant response rating (0 to 10 scale, 0 is no effect, 10 is complete control) (rice; flood test species): 0
Rice plant response rating (rice; [10]): 0
Rice plant response rating (rice; [11]): 0
S. Flatsedge plant response rating (smallflower flatsedge; [9]): 0
S. Flatsedge plant response rating (0 to 10 scale, 0 is no effect, 10 is complete control) (smallflower flatsedge; flood test species): 0
S. Flatsedge plant response rating (smallflower flatsedge; [10]): 0
S. Flatsedge plant response rating (smallflower flatsedge; [11]): 0
Ducksalad plant response rating (duck salad; [9]): 0
Ducksalad plant response rating (0 to 10 scale, 0 is no effect, 10 is complete control) (duck salad; flood test species): 0
Ducksalad plant response rating (duck salad; [10]): 0
Ducksalad plant response rating (duck salad; [11]): 0
Barnyardgrass plant response rating (bamyardgrass; [9]): 0
Barnyardgrass plant response rating (0 to 10 scale, 0 is no effect, 10 is complete control) (bamyardgrass; flood test species): 0
Barnyardgrass plant response rating (bamyardgrass; [10]): 0
Barnyardgrass plant response rating (bamyardgrass; [11]): 0

CCOP(=O)(Cn1c(=O)on(C(=O)N(c2ccccc2)C(C)C)c1=O)OCC [Compound 447]
Blackgrass plant response rating (blackgrass; [12]): 0
Blackgrass plant response rating (blackgrass; [13]): 2
Blackgrass plant response rating (blackgrass; [3]): 7
Plant response rating, Blackgrass (blackgrass; [4]): 0
Blackgrass plant response rating (blackgrass; [14]): 0
Blackgrass plant response rating (blackgrass; [15]): 0
Blackgrass plant response rating (blackgrass; [16]): 0
Plant response rating, Blackgrass (blackgrass; [8]): 3
B. signalgrass plant response rating (surinam grass; Postemergence, Rate 250 g/ha, scale 0 to 10, 0 no effect, 10 complete control): 0
B. signalgrass plant response rating (surinam grass; [13]): 0
B. signalgrass plant response rating (surinam grass; [3]): 2
Plant response rating, B. signalgrass (surinam grass; [4]): 0
B. signalgrass plant response rating (surinam grass; [14]): 0
B. signalgrass plant response rating (surinam grass; [15]): 0
B. signalgrass plant response rating (surinam grass; [16]): 0
Plant response rating, B. signalgrass (surinam grass; [8]): 6
Cocklebur plant response rating (cocklebur; [12]): 0
Cocklebur plant response rating (cocklebur; [13]): 0
Cocklebur plant response rating (cocklebur; [3]): 0
Plant response rating, Cocklebur (cocklebur; [4]): 0
Cocklebur plant response rating (cocklebur; [14]): 0
Cocklebur plant response rating (cocklebur; [15]): 0
Cocklebur plant response rating (cocklebur; [16]): 0
Plant response rating, Cocklebur (cocklebur; [8]): 0
Corn plant response rating (corn; [12]): 0
Corn plant response rating (corn; [13]): 0
Corn plant response rating (corn; [3]): 0
Plant response rating, Corn (corn; [4]): 0
Corn plant response rating (corn; [14]): 0
Corn plant response rating (corn; [15]): 0
Corn plant response rating (corn; [16]): 0
Plant response rating, Corn (corn; [8]): 0
Crabgrass plant response rating (crabgrass; [12]): 0
Crabgrass plant response rating (crabgrass; [13]): 0
Crabgrass plant response rating (crabgrass; [3]): 0
Plant response rating, Crabgrass (crabgrass; [4]): 3
Crabgrass plant response rating (crabgrass; [14]): 8
Crabgrass plant response rating (crabgrass; [15]): 9
Crabgrass plant response rating (crabgrass; [16]): 0
Plant response rating, Crabgrass (crabgrass; [8]): 9
Soybean plant response rating (soybean; [12]): 2
Soybean plant response rating (soybean; [13]): 4
Soybean plant response rating (soybean; [3]): 6
Plant response rating, Soybean (soybean; [4]): 0
Soybean plant response rating (soybean; [14]): 0
Soybean plant response rating (soybean; [15]): 0
Soybean plant response rating (soybean; [16]): 1
Sugarbeets plant response rating (sugar beet; [12]): 0
Sugarbeets plant response rating (sugar beet; [13]): 0
Sugarbeets plant response rating (sugar beet; [3]): 0
Plant response rating, Sugarbeets (sugar beet; [4]): 0
Sugarbeets plant response rating (sugar beet; [14]): 0
Sugarbeets plant response rating (sugar beet; [15]): 0
Sugarbeets plant response rating (sugar beet; [16]): 0
Plant response rating, Sugarbeets (sugar beet; [8]): 0
Velvetleaf plant response rating (velvetleaf; [12]): 0
Velvetleaf plant response rating (velvetleaf; [13]): 0
Velvetleaf plant response rating (velvetleaf; [3]): 0
Plant response rating, Velvetleaf (velvetleaf; [4]): 0
Velvetleaf plant response rating (velvetleaf; [14]): 0
Velvetleaf plant response rating (velvetleaf; [15]): 0
Velvetleaf plant response rating (velvetleaf; [16]): 0
Plant response rating, Velvetleaf (velvetleaf; [8]): 0
Wheat plant response rating (wheat; [12]): 0
Wheat plant response rating (wheat; [13]): 0
Wheat plant response rating (wheat; [3]): 0
Plant response rating, Wheat (wheat; [4]): 0
Wheat plant response rating (wheat; [14]): 0
Wheat plant response rating (wheat; [15]): 0
Wheat plant response rating (wheat; [16]): 0
Plant response rating, Wheat (wheat; [8]): 0
Wild oats plant response rating (wild oat; [12]): 0
Wild oats plant response rating (wild oat; [13]): 0
Wild oats plant response rating (wild oat; [3]): 0
Plant response rating, Wild oats (wild oat; [4]): 0
Wild oats plant response rating (wild oat; [14]): 2
Wild oats plant response rating (wild oat; [15]): 7
Wild oats plant response rating (wild oat; [16]): 0
Plant response rating, Wild oats (wild oat; [8]): 10
Nutsedge plant response rating (purple nutsedge; [12]): 0
Nutsedge plant response rating (purple nutsedge; [13]): 0
Nutsedge plant response rating (purple nutsedge; [3]): 0
Plant response rating, Nutsedge (purple nutsedge; [4]): 0
Nutsedge plant response rating (purple nutsedge; [14]): 0
Nutsedge plant response rating (purple nutsedge; [15]): 0
Nutsedge plant response rating (purple nutsedge; [16]): 0
Plant response rating, Nutsedge (purple nutsedge; [8]): 0
Rice plant response rating (rice; [9]): 0
Rice plant response rating (0 to 10 scale, 0 is no effect, 10 is complete control) (rice; flood test species): 0
Rice plant response rating (rice; [10]): 0
Rice plant response rating (rice; [17]): 0
S. Flatsedge plant response rating (smallflower flatsedge; [9]): 0
S. Flatsedge plant response rating (0 to 10 scale, 0 is no effect, 10 is complete control) (smallflower flatsedge; flood test species): 0
S. Flatsedge plant response rating (smallflower flatsedge; [10]): 0
S. Flatsedge plant response rating (smallflower flatsedge; [17]): 0
Ducksalad plant response rating (duck salad; [9]): 0
Ducksalad plant response rating (0 to 10 scale, 0 is no effect, 10 is complete control) (duck salad; flood test species): 0
Ducksalad plant response rating (duck salad; [10]): 0
Ducksalad plant response rating (duck salad; [17]): 0
Barnyardgrass plant response rating (bamyardgrass; [9]): 0
Barnyardgrass plant response rating (0 to 10 scale, 0 is no effect, 10 is complete control) (bamyardgrass; flood test species): 0
Barnyardgrass plant response rating (bamyardgrass; [10]): 0
Barnyardgrass plant response rating (bamyardgrass; [17]): 0
